Reference: ChEMBL document CHEMBL1201862, “PubChem BioAssay data set” (2004)
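These data come from cells grown in 96-well plates and exposed to compound for 48 hours at five concentrations. Here, GI50 denotes the concentration required for 50% inhibition of growth.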 Activity calls are given as the source filed them. Cut-off read from the data, not from the text of the source: active = GI50 up to about 1.1 µM and inactive = higher.

How the values were obtained:
Experiment in all cases: NCI tumour cell line growth inhibition, 48 h
786-0 = tested on: 786-0
KM12 = tested on: KM12
OVCAR-4 = tested on: OVCAR-4
SF-539 = tested on: SF-539
SK-OV-3 = tested on: SK-OV-3
NCI-H522 = tested on: NCI-H522
SNB-19 = tested on: SNB-19
OVCAR-8 = tested on: OVCAR-8
HT-29 = tested on: HT-29
CAKI-1 = tested on: CAKI-1
OVCAR-5 = tested on: OVCAR-5
OVCAR-3 = tested on: OVCAR-3
K562 = tested on: K562
HOP-62 = tested on: HOP-62
SK-MEL-2 = tested on: SK-MEL-2
NCI-H226 = tested on: NCI-H226

Row | SMILES | GI50 (786-0) | GI50 (KM12) | GI50 (OVCAR-4) | GI50 (SF-539) | GI50 (SK-OV-3) | GI50 (NCI-H522) | GI50 (SNB-19) | GI50 (OVCAR-8) | GI50 (HT-29) | GI50 (CAKI-1) | GI50 (OVCAR-5) | GI50 (OVCAR-3) | GI50 (K562) | GI50 (HOP-62) | GI50 (SK-MEL-2) | GI50 (NCI-H226)
1 | Cc1ccc(C)c2c1CCc1cc3ccccc3nc1-2 | > 100 µM (inactive) | > 100 µM (inactive) | > 100 µM (inactive) | > 100 µM (inactive) | > 100 µM (inactive) | > 100 µM (inactive) | > 100 µM (inactive) | > 100 µM (inactive) | > 100 µM (inactive) | > 100 µM (inactive) | > 100 µM (inactive) | > 100 µM (inactive) | > 100 µM (inactive) | > 100 µM (inactive) | > 100 µM (inactive) | 
2 | COc1ccc(C2=NC(C)(C)CO2)cc1 | > 100 µM (inactive) | > 100 µM (inactive) | > 100 µM (inactive) | > 100 µM (inactive) |  |  | > 100 µM (inactive) | > 100 µM (inactive) | > 100 µM (inactive) | > 100 µM (inactive) | > 100 µM (inactive) | > 100 µM (inactive) | > 100 µM (inactive) | > 100 µM (inactive) | > 100 µM (inactive) | 
3 | O=Cc1cn(S(=O)(=O)c2ccccc2)c2ccccc12 | 55.5 µM (inactive) | 86.5 µM (inactive) | 33.6 µM (inactive) | 27.5 µM (inactive) | > 100 µM (inactive) |  | 54.2 µM (inactive) | 33.5 µM (inactive) | 55.5 µM (inactive) |  | > 100 µM (inactive) | 41 µM (inactive) | 19.9 µM (inactive) | > 100 µM (inactive) |  | 70.3 µM (inactive)
4 | CC(=O)n1ccc2c(Cl)ncnc21 | > 100 µM (inactive) | > 100 µM (inactive) |  | > 100 µM (inactive) | > 100 µM (inactive) | > 37.6 µM (inactive) | > 100 µM (inactive) | > 100 µM (inactive) | > 100 µM (inactive) | > 61.4 µM (inactive) |  | > 100 µM (inactive) | > 100 µM (inactive) | > 100 µM (inactive) | > 100 µM (inactive) | 
5 | COc1c(C)cc2c(c1O)C1NC(C2)[C@H](O)N2C3COC(=O)[C@@]4(CS[C@@H](c5c(OC(C)=O)c(C)c6c(c53)OCO6)C12)NCCC1=C4NC2C=CC=CC12 (stereo not given in full) | < 0.01 µM (active) |  |  | < 0.01 µM (active) |  |  | < 0.01 µM (active) | < 0.01 µM (active) | < 0.01 µM (active) |  |  | < 0.01 µM (active) | < 0.01 µM (active) | < 0.01 µM (active) | < 0.01 µM (active) | < 0.01 µM (active)
6 | COc1cc2ccnc(C#N)c2cc1OCc1ccccc1 | 37.4 µM (inactive) | > 100 µM (inactive) | 33.7 µM (inactive) | 49.9 µM (inactive) |  | 50 µM (inactive) | 84.1 µM (inactive) | > 100 µM (inactive) | > 100 µM (inactive) | > 100 µM (inactive) | > 100 µM (inactive) | > 100 µM (inactive) | > 100 µM (inactive) | 35.6 µM (inactive) | 64.1 µM (inactive) | 
7 | Cc1ccccc1C(=O)N1CCN(C(=O)c2ccccc2C)CC1 | > 100 µM (inactive) | > 100 µM (inactive) | > 100 µM (inactive) | > 100 µM (inactive) | > 100 µM (inactive) | > 100 µM (inactive) | > 100 µM (inactive) | > 100 µM (inactive) | > 100 µM (inactive) | > 100 µM (inactive) | > 100 µM (inactive) | > 100 µM (inactive) | > 100 µM (inactive) | > 100 µM (inactive) |  | 
8 | CC[P+](C)(Cc1ccccc1)c1ccccc1.O=C(OC(C(=O)[O-])C(OC(=O)c1ccccc1)C(=O)O)c1ccccc1 (stereo not given) | > 100 µM (inactive) | > 100 µM (inactive) | > 100 µM (inactive) | > 100 µM (inactive) | > 100 µM (inactive) |  | > 100 µM (inactive) | > 100 µM (inactive) | > 100 µM (inactive) | > 100 µM (inactive) | > 100 µM (inactive) |  | > 100 µM (inactive) | > 100 µM (inactive) | > 100 µM (inactive) | 
